Experimental data reported in patent US11505548B2, “Heterocyclic compounds and their use for treatment of helminthic infections and diseases” (Celgene Corporation, priority 2019, dated 2022).
pIC50: −log10 of the molar value.

System: microfilariae of Dirofilaria immitis
Assay: Dirofilaria immitis, Microfilaria (DiMF) Assay
Format: cell-based
Conditions: read-out: D. immitis activity level (IC50 or MED)
In short: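 D. immitis microfilariae were incubated in medium with DMSO-diluted compounds for about 72 h. Survival or paralysis was scored subjectively under the microscope. Values are Minimum Effective Dose (MED).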

Row | SMILES | pIC50
1 | Cc1cccnc1Nc1nc(-c2cc(C(F)(F)F)c(OCC3CC3)cn2)ns1 [Compound 110, 3-(5-(cyclo-propylmethoxy)-4-(trifluoromethyl)pyridin-2-yl)-N-(3-methyl-pyridin-2-yl)-1,2,4-thiadiazol-5-amine] | 6.30 to 6.70
2 | COc1ccc(-c2nsc(Nc3ccc(OC(C)C)cn3)n2)nc1 [Compound 215, N-(5-isoprop-oxypyridin-2-yl)-3-(5-methoxy-pyridin-2-yl)-1,2,4-thiadiazol-5-amine] | 5.30 to 6.30
3 | CC(=O)N(C)c1cccnc1Nc1nc(-c2cc(C)ccn2)ns1 [Compound 208, N-methyl-N-(2-(3-(4-methylpyridin-2-yl)-1,2,4-thiadiazol-5-ylamino)pyridin-3-yl)acetamide] | 5.30 to 6.30
4 | CC(=O)N(C)c1cccnc1Nc1nc(-c2cc3c(cn2)N(C(C)C)CC3)ns1 [Compound 206, N-(2-(3-(1-isopropyl-2,3-dihydro-1H-pyrrolo[2,3-c]pyridin-5-yl)-1,2,4-thiadiazol-5-ylamino)pyridin-3-yl)-N-methylacetamide] | > 6.70
5 | CC(C)Oc1cnc(-c2nsc(Nc3ncc(C(C)C)cc3C(F)(F)F)n2)cc1C(N)=O [Compound 221, 5-isopropoxy-2-(5-(5-isopropyl-3-(trifluoromethyl)pyridin-2-ylamino)-1,2,4-thiadiazol-3-yl)iso-nicotinamide] | 6.30 to 6.70
6 | CC(=O)N(C)c1cc(C(F)(F)F)cnc1Nc1nc(-c2ccc(OC(C)C)cn2)ns1 [Compound 247, N-(2-(3-(5-isopropoxy-pyridin-2-yl)-1,2,4-thiadiazol-5-ylamino)-5-(trifluoro-methyl)pyridin-3-yl)-N-methylacetamide] | > 6.70
7 | c1ccc(-c2nsc(Nc3ccc(N4CCCC4)cn3)n2)nc1 [Cmpd 8, 3-(pyridin-2-yl)-N-(5-(pyrrolidin-1-yl)pyridin-2-yl)-1,2,4-thiadiazol-5-amine] | 5.30 to 6.30
8 | Cc1cccnc1Nc1nc(-c2ccc(OC3CCOCC3)cn2)no1 [Compound 16, N-(3-methyl-pyridin-2-yl)-3-(5-(tetrahydro-2H-pyran-4-yloxy)pyridin-2-yl)-1,2,4-oxadiazol-5-amine] | 5.30 to 6.30
9 | COc1ccc(-c2nnc(Nc3cc(OC(C)C)ccn3)[nH]2)nc1 [Compound 257, 4-isopropoxy-N-(5-(5-methoxy-pyridin-2-yl)-4H-1,2,4-triazol-3-yl)pyridin-2-amine] | 5.30 to 6.30
10 | CC(C)Oc1cnc(-c2nsc(Nc3ncccc3C(C)C)n2)cc1C(F)(F)F [Compound 168, 3-(5-isoprop-oxy-4-(trifluoromethyl)pyridin-2-yl)-N-(3-isopropyl-pyridin-2-yl)-1,2,4-thiadiazol-5-amine] | 6.30 to 6.70
11 | CC(C)c1ccnc(-c2nsc(Nc3cc(C(F)(F)F)ccn3)n2)c1 [Compound 86, 3-(4-isopropyl-pyridin-2-yl)-N-(4-(trifluoromethyl)pyridin-2-yl)-1,2,4-thiadiazol-5-amine] | > 6.70
12 | COc1cccnc1Nc1nc(-c2cc(C(F)(F)F)c(OC(C)C)cn2)ns1 [Compound 167, 3-(5-isopropoxy-4-(trifluoromethyl)pyridin-2-yl)-N-(3-methoxypyridin-2-yl)-1,2,4-thiadiazol-5-amine] | 5.30 to 6.30
13 | CC(C)Oc1cnc(-c2nsc(Nc3ncccc3C(F)(F)F)n2)cc1C(=O)N(C)C [Compound 218, 5-isopropoxy-N,N-dimethyl-2-(5-(3-(trifluoromethyl)pyridin-2-ylamino)-1,2,4-thiadiazol-3-yl)isonico-tinamide] | 5.30 to 6.30
14 | COc1cccnc1Nc1nc(-c2ccc(OC3CC3)cn2)ns1 [Compound 80, 3-(5-cycloprop-oxypyridin-2-yl)-N-(3-methoxypyridin-2-yl)-1,2,4-thiadiazol-5-amine] | 5.30 to 6.30
15 | CC(=O)N(C)c1cc(C(F)(F)F)cnc1Nc1nc(-c2cc3c(cn2)N(C)CC3)ns1 [Compound 249, N-methyl-N-(2-(3-(1-methyl-2,3-dihydro-1H-pyrrolo[2,3-c]pyridin-5-yl)-1,2,4-thiadiazol-5-ylamino)-5-(trifluoromethyl)pyridin-3-yl)acetamide] | > 6.70
16 | Cc1cccnc1Nc1nc(-c2cc(OC3CC3)ccn2)ns1 [Compound 65, 3-(4-cycloprop-oxypyridin-2-yl)-N-(3-methyl-pyridin-2-yl)-1,2,4-thiadiazol-5-amine] | > 6.70
17 | Cc1cccnc1Nc1nc(-c2ccc(OC3CCN(C(=O)C(C)C)CC3)cn2)ns1 [Compound 265, 2-methyl-1-(4-(6-(5-(3-methylpyridin-2-ylamino)-1,2,4-thiadiazol-3-yl)pyridin-3-yloxy)piperidin-1-yl)propan-1-one] | 5.30 to 6.30
18 | CC(=O)N1CCC(Oc2ccc(-c3nsc(Nc4ncccc4C)n3)nc2)CC1 [Compound 266, 1-(4-(6-(5-(3-methyl-pyridin-2-ylamino)-1,2,4-thiadiazol-3-yl)pyridin-3-yloxy)piperidin-1-yl)ethanone] | 5.30 to 6.30
19 | FC(F)(F)c1ccnc(Nc2nc(-c3cc(C4CC4)ccn3)ns2)c1 [Compound 85, 3-(4-cyclopropyl-pyridin-2-yl)-N-(4-(trifluoromethyl)pyridin-2-yl)-1,2,4-thiadiazol-5-amine] | > 6.70

Row | SMILES | pIC50
20 | CC(C)c1cnc(Nc2nc(-c3ncccc3OC3CC3)ns2)cc1C(F)(F)F [Compound 97, 3-(3-cycloprop-oxypyridin-2-yl)-N-(5-isopropyl-4-(trifluoromethyl)pyridin-2-yl)-1,2,4-thiadiazol-5-amine] | > 6.70
21 | Cc1cccnc1Nc1nc(-c2ccc(OCC3CC3)cn2)ns1 [Compound 73, 3-(5-(cyclopropyl-methoxy)pyridin-2-yl)-N-(3-methylpyridin-2-yl)-1,2,4-thiadiazol-5-amine] | 6.30 to 6.70
22 | Cc1cnc(Nc2nc(-c3cc(C(N)=O)c(OC(C)C)cn3)ns2)c(C(F)(F)F)c1 [Compound 252, 5-isopropoxy-2-(5-(5-methyl-3-(trifluoro-methyl)pyridin-2-ylamino)-1,2,4-thiadiazol-3-yl)isonico-tinamide] | 5.30 to 6.30
23 | CC(C)Oc1cnc(-c2nsc(Nc3ncccc3N(C)C)n2)cc1C(F)(F)F [Compound 156, N2-(3-(5-isopropoxy-4-(trifluoromethyl)pyridin-2-yl)-1,2,4-thiadiazol-5-yl)-N3,N3-dimethyl-pyridine-2,3-diamine] | 6.30 to 6.70
24 | CC(C)c1cnc(Nc2nc(-c3ccc(OC4CC4)cn3)ns2)cc1C(F)(F)F [Compound 95, 3-(5-cyclopropoxy-pyridin-2-yl)-N-(5-isopropyl-4-(trifluoromethyl)pyridin-2-yl)-1,2,4-thiadiazol-5-amine] | > 6.70
25 | Cc1cccnc1Nc1nc(-c2ccc(OC3CC3)cn2)ns1 [Compound 38, 3-(5-cyclo-propoxypyridin-2-yl)-N-(3-methyl-pyridin-2-yl)-1,2,4-thiadiazol-5-amine] | 6.30 to 6.70
26 | c1ccc(-c2ccnc(Nc3nnc(-c4ccccn4)[nH]3)c2)cc1 [Compound 241, 4-phenyl-N-(5-(pyridin-2-yl)-4H-1,2,4-triazol-3-yl) pyridin-2-amine] | 6.30 to 6.70
27 | CC(=O)N(C)c1cccnc1Nc1nc(-c2cc(C(C)C)c(C)cn2)ns1 [Compound 223, N-(2-(3-(4-isopropyl-5-methylpyridin-2-yl)-1,2,4-thiadiazol-5-ylamino)pyridin-3-yl)-N-methyl-acetamide] | 6.30 to 6.70
28 | COc1ccc(-c2nsc(Nc3ccc(C4CCCC4)cn3)n2)nc1 [Compound 68, N-(5-cyclopentyl-pyridin-2-yl)-3-(5-methoxypyridin-2-yl)-1,2,4-thiadiazol-5-amine] | 5.30 to 6.30
29 | CN(C)c1cccnc1Nc1nc(-c2ccc(OCC3CC3)cn2)ns1 [Compound 118, N2-(3-(5-(cyclopropyl-methoxy)pyridin-2-yl)-1,2,4-thiadiazol-5-yl)-N3,N3-dimethyl-pyridine-2,3-diamine] | 5.30 to 6.30
30 | CCOc1cnc(-c2nsc(Nc3ncccc3N(C)C(C)=O)n2)cc1C(F)(F)F [Compound 228, N-(2-(3-(5-ethoxy-4-(trifluoro-methyl)pyridin-2-yl)-1,2,4-thiadiazol-5-ylamino)pyridin-3-yl)-N-methyl-acetamide] | 5.30 to 6.30
31 | CC(=O)N(C)c1cc(C(F)(F)F)cnc1Nc1nc(-c2cc3c(cn2)N(C(C)C)CC3)ns1 [Compound 273, N-(2-(3-(1-isopropyl-2,3-dihydro-1H-pyrrolo[2,3-c]pyridin-5-yl)-1,2,4-thiadiazol-5-ylamino)-5-(trifluoromethyl)pyridin-3-yl)-N-methylacetamide] | > 6.70
32 | Cc1cccnc1Nc1nc(-c2cc(C(F)(F)F)c(OC3CC3)cn2)ns1 [Compound 102, 3-(5-cyclo-propoxy-4-(trifluoromethyl)pyridin-2-yl)-N-(3-methyl-pyridin-2-yl)-1,2,4-thiadiazol-5-amine] | 6.30 to 6.70
33 | Cc1cccnc1Nc1nc(-c2cc(C#N)c(OC(C)C)cn2)ns1 [Compound 200, 5-isopropoxy-2-(5-(3-methylpyridin-2-ylamino)-1,2,4-thiadiazol-3-yl)isonicotino-nitrile] | 6.30 to 6.70
34 | Cc1cccnc1Nc1nc(-c2ccc(OC3CCN(C4CC4)CC3)cn2)ns1 [Compound 45, 3-(5-(1-cyclo-propylpiperidin-4-yloxy)pyridin-2-yl)-N-(3-methylpyridin-2-yl)-1,2,4-thiadiazol-5-amine] | 5.30 to 6.30
35 | CC(C)Oc1cnc(-c2nsc(Nc3ncccc3C(F)(F)F)n2)cc1C(N)=O [Compound 220, 5-isopropoxy-2-(5-(3-(trifluoromethyl)pyridin-2-ylamino)-1,2,4-thiadiazol-3-yl)isonico-tinamide] | 5.30 to 6.30
36 | CC(C)Oc1cnc(-c2nsc(Nc3ncccc3N(C)C(=O)C3CC3)n2)cc1C(F)(F)F [Compound 186, N-(2-(3-(5-isopropoxy-4-(trifluoro-methyl)pyridin-2-yl)-1,2,4-thiadiazol-5-ylamino)pyridin-3-yl)-N-methylcyclo-propanecarbox-amide] | 6.30 to 6.70
37 | CN(C)c1cccnc1Nc1nc(-c2ccc(F)cn2)ns1 [Compound 121, N2-(3-(5-fluoro-pyridin-2-yl)-1,2,4-thiadiazol-5-yl)-N3,N3-dimethylpyridine-2,3-diamine] | 5.30 to 6.30
